Where “and” joins values, the source holds several entries; their conditions need not be identical. Equal entries are not always repeated. Entries after “also recorded” stand apart in the source; their conditions may differ. Where two headings read alike, the source gives them in different places. Some results are limits rather than exact numbers.

The conditions of data set [1]: with piperine, cited from earlier work.
The conditions of data set [2]: cited from earlier work.
In another data set the test system is preweaned mice. The conditions noted are these: cited from earlier work; for tumor development / carcinogenic potency compared with methylcholantrene: injected, preweaned mice; for effect on carcinogenic activity of safarole, tannic acid or methylcholantrene: fed to injected mice.
The test system of the next data set is cytochrome P-450. The conditions noted are these: cited from earlier work.
Data set [3] is described as follows: Blood levels of vitamin A (retinol) before and after 14 days supplementation. It is filed as in vivo, human. The conditions noted are these: 5 mg piperine with beta-carotene, in words. The procedure: Piperine known under the trademark Bioperine® consisting of 98% piperine has been evaluated in a nutrient bioavailability experiment.
A dose of 5 mg of piperine, and up to 15 mg, would most likely not interfere with the metabolism of a majority of drugs as previously discussed. […] Retinol, or vitamin A, is a product of metabolic conversion of beta-carotene, and its blood levels would likely be affected by enzymatic inhibition/stimulation with piperine.
Values of Vitamin A (retinol) before treatment and after
14 days supplementation with Bioperine ®

A short description of data set [4]: Margin of bioenhancing dose of piperine versus LD50 in rodents. Set-up: species or system mice and rats. The settings on record: in vivo; maximum approx. 15 mg/person/day, no more than 20 mg/day; read-out: bioenhancing dose less than LD50 dose. The procedure:
Black pepper contains approximately 5-9% piperine and is listed by the FDA as an herb which is generally recognized as safe (GRAS) for its intended use as spice, seasoning, or flavoring.
The dose of piperine considered as bioenhancing absorption of nutrients is considered 0.0004-0.15 mg of piperine/kg body weight.

A further data set deals with Rat. The conditions noted are these: cited from earlier work.
The conditions of data set [5]: co-administered drugs; cited from earlier work.
Data set [6] deals with rats. The settings on record: cited from earlier work.
In another data set the test system is laboratory animals. The conditions noted are these: broad range of doses; cited from earlier work.
Another data set concerns Mice. The settings on record: cited from earlier work.
In a further data set the test system is V-79 lung fibroblasts. The settings on record: in vitro; cited from earlier work.
Data set [7] has as its system benzo(a)pyrene activation. The settings on record: cited from earlier work.
Data set [8] has as its system rats. The conditions noted are these: 100 mg and 800 mg/kg intragastric; 10 mg/kg and 100 mg/kg intra-peritoneal; cited from earlier work.
Data set [9] concerns mice treated with potent hepatotoxins and carbon tetrachloride. The settings on record: in vivo and in vitro experiments; cited from earlier work.
In data set [10] the test system is mice treated with potent hepatotoxins tetra-hydroperoxide and carbon tetrachloride. The settings on record: cited from earlier work.
Data set [11] deals with rats injected with carageenin. The settings on record: cited from earlier work.
The conditions of data set [12]: 20 mg piperine daily for seven days, then 300 mg phenytoin; cited from earlier work.
[13] abbreviates: 5 to 20 times the average daily human intake.
The mark [14] stands for this setting: dose that significantly inhibited pregnancy.
The mark [15] stands for this setting: in vivo and in vitro experiments.

For `CC(C)NCC(O)COc1cccc2ccccc12` (stereo not shown) [propranolol], in data set [1] (3 mg dose), the “elimination rate of propranolol” value is given as “did not affect the elimination rate; also recorded: without slowing down the drug elimination rate” and the “maximum blood concentration increase of propranolol” value is “two fold; also recorded: doubling its blood levels”. The “plasma / blood levels of propranolol” value in [1] is given as “significant increase in plasma levels; also recorded: significant increase in blood levels”.
Turning to `Cn1c(=O)c2[nH]cnc2n(C)c1=O` [theophylline], in data set [2] (20 mg piperine daily for seven days, then 150 mg theophylline), the “maximum concentration of theophylline, increase” value is reported as 1.5 times higher. The “blood levels of theophylline” value in [2] (20 mg piperine for seven days prior) is recorded as “increased blood levels”.
As to `Cc1ccc2cc3c(ccc4ccccc43)c3c2c1CC3` [methylcholantrene], the tumor development entry in the data set with preweaned mice is “developed tumors”.
Take `C=CCc1ccc2c(c1)OCO2` [safarole]: the “increase of cytochrome P-450 content of hepatic microsomes” value with cytochrome P-450 (pretreatment of rats) is reported as “about 50%”. Also, in the data set on preweaned mice, the “carcinogenic potency compared with methylcholantrene” value was “weak carcinogens” and the tumor development result is “developed tumors”.
`O=C(/C=C/C=C/c1ccc2c(c1)OCO2)N1CCCCC1` [piperine]: the “blood levels of retinol / conversion of beta-carotene to vitamin A” value in data set [3] was “remained unchanged throughout the experiment; also recorded: does not elevate the conversion of beta-carotene to vitamin A”. Besides, the selectivity ratio in data set [4] is at most 40000. In the data set with Rat (Rat weanling), the LD50 is recorded as 585.0 mg/kg body weight. The LD50 with Rat (Rat) is 514.0 mg/kg body weight and 800.0 mg/kg body weight. Further, the “bioavailability of a number of drugs” value in data set [5] was “increase the bioavailability, blood levels and efficacy of a number of drugs”. Also, in the data set on rats [6] (setting [13]), the clinical symptoms entry is “no clinical symptoms” and the “food intake, growth pattern, organ weights” value was “did not affect”. Further, the “blood chemistry (RBC, WBC, differential count, hemoglobin, serum proteins, albumins, globulins, glucose, cholesterol, aminotransferases, phosphatases)” value with rats [6] (treated vs untreated animals) is “no alterations”. For the same compound, the “general growth pattern, body to organ weight ratio, clinical symptomatology and blood chemistry” value in the data set with laboratory animals is on record as “does not cause any abnormality”. Moreover, the anti-fertility activity entry with Mice (5 mg/kg body weight/day) is reported as “no anti-fertility activity”. The inhibition of pregnancy result with Mice (12.5 mg/kg body weight, twice a day, intraperitoneal or oral) is “inhibited significantly pregnancy in mice”. For the same compound, the “effectiveness at pre- and post-implantation periods” value in the data set with Mice (12.5 mg/kg body weight, twice a day) is “effective at both pre- and post-implantation periods”. In addition, in the data set with Mice (setting [14]), the clinically noticeable toxicity is listed as “did not produce clinically noticeable toxicity”, the “effect on estrogen cycle” value is “did not interfere with the estrogen cycle” and the uterotropic effect entry is on record as “did not show uterotropic effect”. Also, the “effect on benzo(a)pyrene cytotoxicity” value with V-79 lung fibroblasts is given as “significantly enhanced benzo(a)pyrene cytotoxicity”. Further, the “effect on benzo(a)pyrene cytotoxicity” value in [7] (by lowering benzo(a)pyrene-oxide production) is recorded as “decreasing benzo(a)pyrene cytotoxicity”. In [7], the “effect on benzo(a)pyrene activation (benzo(a)pyrene-oxide production)” value is on record as “inhibit benzo(a)pyrene activation”. In the data set with rats [8], the “serum sorbitol dehydrogenase (SDH), ALT, AST and isocitrate dehydrogenase (ICD)” value is “None of the treatment regiments altered significantly”. Moreover, in [9], the “enzymatic leakage of glutamate pyruvate transaminase and alkaline phosphatase” value is recorded as “reduced enzymatic leakage”. In [10] (setting [15]), the hepatoprotective action result is “hepatoprotective action” and the lipid peroxidation result is recorded as “decrease in lipid peroxidation”. In addition, the “reduced glutathione and total thiols in the liver” value in [10] (mouse, in vivo) was “prevented depletion of reduced glutathione and total thiols”. Also, in data set [11], the acid phosphatase levels result is “leveling off increased levels of acid phosphatase” and the lipid peroxide formation entry was “inhibiting lipid peroxide formation”. Further, in the data set with cytochrome P-450 (treatment of rats), the “decrease of cytochrome P-450 content of hepatic microsomes” value is “approximately 20%”. The “effect on carcinogenic activity of safarole, tannic acid or methylcholantrene” value with preweaned mice was “did not modify their carcinogenic activity”.
As to `O=C1NC(=O)C(c2ccccc2)(c2ccccc2)N1` [phenytoin], in [12], the “blood concentration of phenytoin” value is reported as “increased blood levels; also recorded: rose more rapidly”, the elimination of phenytoin result was “dramatically prolonged the elimination time; also recorded: significantly slower elimination”, the “maximum concentration of phenytoin” value was “significantly higher concentrations” and the “time to maximum concentration of phenytoin” value was “shorter time”.
For the compound `O=C(OC[C@H]1O[C@@H](OC(=O)c2cc(O)c(O)c(OC(=O)c3cc(O)c(O)c(O)c3)c2)[C@H](OC(=O)c2cc(O)c(O)c(OC(=O)c3cc(O)c(O)c(O)c3)c2)[C@@H](OC(=O)c2cc(O)c(O)c(OC(=O)c3cc(O)c(O)c(O)c3)c2)[C@@H]1OC(=O)c1cc(O)c(O)c(OC(=O)c2cc(O)c(O)c(O)c2)c1)c1cc(O)c(O)c(OC(=O)c2cc(O)c(O)c(O)c2)c1` [tannic acid], in the data set on preweaned mice, the “carcinogenic potency compared with methylcholantrene” value was “weak carcinogens” and the tumor development entry was “developed tumors”.
In the case of `C=C(C)[C@H]1CC=C(C)CC1` [d-limonene], in the data set on preweaned mice, the “effect on carcinogenic activity of safarole, tannic acid or methylcholantrene” value was “reduced their carcinogenic activity”.

The record behind these values is US5744161A, “Use of piperine as a bioavailability enhancer” (priority 1995, dated 1998).
